We go through one compound from patent US20090035345A1, “Nuclear Receptors Agonists for Treatment of Atherosclerosis and/or Related Cardiovascular Disease” (ACADEMISCH MEDISCH CENTRUM, BUREAU, priority 2005, published 2009).

“Also recorded” adds a separate entry of the source.

The subject of data set [1] is saphenous vein smooth muscle cells. As to the kind of experiment: Cyclic stretch-induced DNA synthesis ([3H]-thymidine incorporation) in venous SMCs. The class given is cell-based, human. How it is done:
To study stretch-induced responses, smooth muscle cells were seeded in 6-well plates containing collagen Icoated flexible membranes (BioFlex® culture plates, Dunn Labortechnik GmbH, Asbach, Germany) and were stretched in the Flexercell FX3000 apparatus (Dunn Labortechnik) for 1, 2, 4, 6, or 24 h at 10% stretch at 0.5 Hz or served as control (without stretch). Silicone-based lubricant was applied to prevent friction between the membrane and loading post.
Smooth muscle cells were seeded in 6-well stretch plates and when wells were confluent, smooth muscle cells were made quiescent for 16 h in medium containing 0.5% (v/v) FBS.
The plates were transferred into the Loading Station™ and stretched for 24 h. Control plates, without stretch, were cultured under identical conditions. Thereafter, cells were labeled for 4 h with 0.5 microCi/mL [methyl-^3H]-thymidine (Amersham Biosciences).
Incorporated radioactivity was precipitated for 30 min at 4° C. with 10% (wt/v) trichloroacetic acid, washed twice with 5% (wt/v) trichloroacetic acid and dissolved in 0.5N NaOH. [^3H]-thymidine was measured by liquid scintillation counting.
When cells were infected with mock- or TR3-containing adenovirus (3×10^8 plaque-forming units) for 2 h, the cells were allowed to recover for 24 h in complete medium before they were made quiescent. Agonist treatment (6-MP) was initiated 1 h prior to stretch with 0, 1, 10, 25 microM C-DIM (stock at 40 mM in DMSO).
The following small interfering RNA (siRNA) sequences were used: TR3 siRNA, 5′-CAG UCC AGC CAU GCU CCU C dTdT-3′, and mutated control siRNA, 5′-CAG ACG AGC CUU GCU CGU C dTdT-3′ (Ambion Inc., UK). Per Flexerplate-well 1 μg of siRNA was transfected into 5×10^5 SMCs using Nucleofector reagent for SMCs (Amaxa GmbH, Cologne, Germany) as per the manufacturer's recommendations and subsequently the cells were placed in the stretch plates and were treated as described above.

For another data set, the target named is T1, Nur77 (Homo sapiens, UniProt P22736).
T1 construct: expressed in transfected cells; host or cells: cultured human smooth muscle cells (SMCs), lentivirally transduced
As to the kind of experiment: Nur77 reporter (NurRE) luciferase assay in Nur77-expressing SMCs. The class given is cell-based. How it is done: Cells were electroporated using the Amaxa method(Amaxa, Germany) with nucleofector reagent for SMCs. In each transfection, 0.5−1.0×10^6 cells were used and 3.5 μg Nur77-reporter plasmid with 1.5 μg Renilla luciferase plasmid (containing the thymidine kinase promoter) to correct for cell number and transfection efficiency. The NUR77-reporter plasmid contained the Nur response element (NurRE) of the POMC-promoter in triplicate with the −34/+63 minimal promoter of POMC gene.^19 24 hours after transfection, cells were incubated with 6-MP (Sigma) for 24 hours and luciferase activity was assayed with the Dual luciferase reporter system (Promega, Madison, Wis.).
To investigate whether 6-MP increases Nur77 transcriptional activity in vascular cells, human SMCs were transduced with lentivirus encoding Nur77, resulting in expression in 85-90% of the infected cells and increased Nur77 mRNA levels compared to mock-infected SMCs (data not shown). […] Nur77-overexpressing SMCs were subsequently electroporated with the firefly luciferase reporter construct, containing the palindromic NurRE (Nur77 response element from the POMC-promoter) sequence (TGATATTTn6AAATGCCA) to monitor Nur77 transcriptional activity in combination with the thymidine kinase-renilla luciferase construct as a control for transfection efficiency.

Data set [2] in a line: In vitro release from drug-eluting poly(ε-caprolactone) cuffs. The class given is physicochemical. Particulars: 0.5% and 1% cuffs, 4-week period.
Experimental: Briefly, 6-MP was dissolved at different concentrations in blended, molten drug-polymer mix and cuffs were designed to fit around the femoral artery of mice. Drug-eluting cuffs are shaped as longitudinally cut cylinders with an internal diameter of 0.5 mm, an external diameter of 1.0 mm, a length of 2.0 mm and a weight of approximately 5.0 mg. Drug-eluting cuffs were loaded with 0.5% (w/w) and 1% (w/w) 6-MP and the in vitro release profiles were determined for a 4-week period, as described before (n=5/group).
Data set [3] has as its system cuff-induced neointima formation in mouse femoral artery. As to the kind of experiment: Femoral artery cuff murine model, 6-MP-eluting cuffs. The data set is classed as in vivo. Particulars: for cuff-induced neointima formation (intimal area): 4 weeks. An excerpt: All animal work was approved by AMC institutional regulatory authority and carried out in compliance with guidelines issued by the Dutch government. Wild-type FVB mice (Wt), transgenic mice expressing the full-length Nur77 gene (Nur77), or mice expressing a dominant-negative variant of Nur77 (ΔTA) (the latter two strains under control of the SM22α promoter, which directs the expression of transgenes specific to SMCs), in an FVB background, were used for experiments. Male mice, 10-12 weeks old, were fed a standard chow diet. At the time of surgery, mice were anaesthetized with an intraperitoneal injection of 5 mg/kg Dormicum (Roche, Basel, Switzerland), 0.5 mg/kg Dormitor (Orion, Helsinki, Finland) and 0.05 mg/kg Fentanyl (Janssen, Geel, Belgium). The femoral artery was dissected from its surroundings and loosely sheathed with a non-constrictive cuff. Either a control, empty cuff or a 6-MP eluting cuff (0.5% or 1% w/w) was used (n=6/group).
Wt and Nur77-overexpressing transgenic mice were sacrificed at 28 days after cuff placement, whereas ATA transgenic mice were sacrificed at 14 days after surgery. The thorax was opened and a mild pressure-perfusion (100 mmHg) with 4% (v/v) formaldehyde in 0.9% (w/v) NaCl was performed for 5 min by cardiac puncture. After perfusion, femoral arteries were harvested, fixed overnight in 4% (v/v) formaldehyde, dehydrated and paraffin embedded. Serial cross-sections (5 μm thick) for histological analysis were used throughout the entire length of the cuffed femoral artery. All samples were routinely stained with hematoxylin-phloxine-saffron (HPS). Weigert's elastin staining was used to visualize elastic laminae. Ten equally spaced cross-sections were used in all mice to quantify intimal lesions. Using image analysis software (Leica Qwin, Wetzlar, Germany), total cross sectional medial area was measured between the external and internal elastic lamina; total cross sectional intimal area was measured between the endothelial cell monolayer and the internal elastic lamina.
In vitro experiments were repeated at least twice and are presented as mean±SD and were analyzed by the Student t-test. Animal experiments are presented as mean±SEM and were analyzed using the Mann-Whitney U-test (SPSS 11.5 for Windows). P-values less than 0.05 were regarded as statistically significant.

Where [4] appears, read: Nur77 transgenic mice, 0.5% 6-MP cuff.
Setting [5] is: Nur77 transgenic mice, 1% 6-MP cuff.

T1 sequence (P22736 whole entry): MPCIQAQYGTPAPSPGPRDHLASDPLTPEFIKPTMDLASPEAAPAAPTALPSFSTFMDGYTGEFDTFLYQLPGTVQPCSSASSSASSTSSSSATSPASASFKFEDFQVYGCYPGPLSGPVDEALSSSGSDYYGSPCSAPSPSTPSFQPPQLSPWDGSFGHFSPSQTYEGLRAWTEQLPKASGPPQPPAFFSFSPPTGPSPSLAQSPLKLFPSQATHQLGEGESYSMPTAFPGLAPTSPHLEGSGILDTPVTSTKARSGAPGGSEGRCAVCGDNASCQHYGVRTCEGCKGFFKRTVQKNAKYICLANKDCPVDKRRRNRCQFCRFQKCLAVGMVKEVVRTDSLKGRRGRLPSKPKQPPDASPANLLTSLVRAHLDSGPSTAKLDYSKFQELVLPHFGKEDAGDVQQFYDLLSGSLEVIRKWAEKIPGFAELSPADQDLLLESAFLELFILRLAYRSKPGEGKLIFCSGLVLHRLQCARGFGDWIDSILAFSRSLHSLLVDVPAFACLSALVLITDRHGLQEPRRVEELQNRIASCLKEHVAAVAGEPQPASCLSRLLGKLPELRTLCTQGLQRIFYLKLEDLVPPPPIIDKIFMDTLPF

`Sc1ncnc2nc[nH]c12` [6-MP, 6-mercaptopurine]: in data set [1] (venous SMCs transfected with TR3-siRNA), the “effect on stretch-induced DNA synthesis after TR3 knockdown” value is recorded as “completely abolishes the effect of 6-MP; also recorded: no longer inhibits DNA synthesis”. Further, the “stretch-induced DNA synthesis” value in data set [1] (venous SMCs, 24 h cyclic stretch, 25 μM 6-MP) is “completely inhibited”. The “stretch-induced DNA synthesis ([3H]-thymidine incorporation)” value in data set [1] (venous SMCs, 24 h cyclic stretch, 6-MP at various concentrations) is reported as “reduced stretch-mediated proliferation in a dose-dependent manner”. Also, the “increase in Nur77 activity (luciferase)” value at Nur77 (50 μM, 24 hours) is listed as 10 fold. The Nur77 transcriptional activity result on Nur77 (24 hours in the presence of 6-MP) is given as “enhances Nur77 activity”. Besides, in data set [2], the “in vitro release profile” value was “sustained and dose-dependent release”. Also, the intima/media ratio in data set [3] (setting [4]) is 0.47±0.05; in data set [3] (setting [5]), 0.30±0.06; in data set [3] (Wt mice, 0.5% 6-MP cuff) it was 0.75±0.05; in data set [3] (Wt mice, 1% 6-MP cuff), 0.51±0.03. In addition, the “cuff-induced neointima formation (intimal area)” value is given as “substantially reduced” in data set [3] (setting [4]); “significant inhibition” in data set [3] (setting [5]); “did not show a decrease” in data set [3] (Wt mice, 0.5% 6-MP cuff); “significant inhibition” in data set [3] (Wt mice, 1% 6-MP cuff). The “medial areas of the cuffed femoral arteries” value in data set [3] (Wt and Nur77 transgenic mice) is given as “No changes”. In addition, the “neointima formation (intimal area)” value is on record as “no significant effect” in data set [3] (ΔTA transgenic mice, 0.5% 6-MP cuff, 2 weeks) and “no significant effect” in data set [3] (ΔTA transgenic mice, 1% 6-MP cuff, 2 weeks). In addition, in data set [3] (ΔTA transgenic mice, 2 weeks), the media thickness entry is listed as “did not change”.
